Publication PMC6597546, “Identification of a potent benzoxaborole drug candidate for treating cryptosporidiosis” (Nature Communications, 2019)
Values joined by “and” are separate entries in the source; they are usually repeats but may differ in a detail not shown here. Identical values can stand only once. Like-named read-outs stand apart in the source and are kept apart here.

Columns and labels:
C. parvum = C. parvum growth inhibition in HCT-8 cells (follow-up assay, Vicia villosa lectin staining); assay type: cell-based, Cryptosporidium parvum
Description: Follow-up assays were performed at the University of Vermont (UVM) and Calibr at Scripps Research by infection of the colonic adenocarcinoma cell line HCT-8 (ATCC CCL-244) and staining with the Vicia villosa lectin and DAPI[17],[32]. The FBS concentrations and parasites used for these assays were as indicated; parasite isolates and sources included C. parvum Iowa isolate oocysts purchased from Bunch Grass Farm (Deary, ID), C. parvum Iowa isolate oocysts purchased from the Sterling Laboratory (University of Arizona, Tucson, AZ), wild type C. parvum oocysts provided by Dr. Jenni Zambriski (Virginia Tech, Blacksburg, VA), and the C. hominis TU502 isolate purchased from Dr. Saul Tzipori (Tufts University Cummings School of Veterinary Medicine, North Grafton, MA). […] Amphotericin B (Sigma, catalog# A2942) was added to the culture media at 0.1 to 0.5 µg per mL for the DMC1 dose response assays.

[1] = tested on: C. parvum (Bunch Grass Farms Iowa isolate); assay: Time-kill curve assay in HCT-8 cells; assay type: cell-based, Cryptosporidium parvum
Description: The invasion assay, DNA replication assay, asexual to sexual stage conversion, and time-kill curve assays were performed using fluorescence microscopy to enumerate parasites and host cell nuclei. Staining protocols are individually described for each assay. Unless noted otherwise, the details of image acquisition were as follows. An inverted Nikon Eclipse Ti2000 microscope with an automated stage and Perfect Focus was used with NIS-Elements Advanced Research software (Nikon, USA, version 4.30.01) to image the wells. The microscope was programmed to focus on the center of each well and then take a 3 × 3 composite image per well using a 20 × (0.45 NA) objective. Images were exported as .tiff files and parasites and host nuclei counted using a custom macro on ImageJ (National Institutes of Health, version 1.52a). Data were analyzed using Microsoft Excel and GraphPad Prism (version 6.01). […] C. parvum Iowa isolate oocysts (Bunch Grass Farms, Deary, ID) were treated to induce excystation and added to >90% confluent HCT-8 cells in 384-well plates. […] The monolayers were then washed, fixed, and stained with Vicia villosa lectin and DAPI at the indicated time points, and imaged as for the C. parvum growth assay. Separate 384-well plates were used for each time point. Parasite numbers were normalized to host cell nucleus numbers and expressed as the percentage of host cells infected. Drug-induced parasite decay was isolated from the reduction in parasites over time that occurs spontaneously in the HCT-8 culture system by expressing the number of parasites as the percentage of the number of parasites present at each time point under control (DMSO-treated) conditions.

Single-dose oral calf PK = assay type: in vivo, Holstein bull calves; details: calves, oral 5 mg per kg
Description: Single-dose oral and intravenous murine PK studies were performed by WuXi Biologics (Wuxi, China) in female CD-1 mice in compliance with animal care guidelines. […] Single-dose oral calf PK studies were performed at the University of Vermont in compliance with animal care guidelines and with approval from the University of Vermont Institutional Animal Care and Use Committee. […] Doses were squirted into the calves’ mouths during interruptions in bottle feeding. Fecal samples were collected at the indicated times by manual anal stimulation. […] Fecal AN7973 was measured by extracting AN7973 from homogenized feces with acetonitrile. For this, feces were added to 4 volumes of acetonitrile (4 mL per g), mixed by vortexing for 5 min at room temperature, and then centrifuged. […] The fecal extraction method was validated with a standard curve of compound added to control feces. […] Non-compartmental analysis of the mean concentration-time profiles was performed using Phoenix version 6.4 (Pharsight Corporation, Mountain View, CA, USA). Concentrations below the limit of quantitation were assigned values of zero for generation of mean concentrations. Predictions of multidose exposures were generated by non-parametric superposition of the single-dose PK data using Phoenix version 6.4 (Supplementary Fig. 5).

human lymphocytes = assay: In vitro micronucleus genotoxicity assay; assay type: cell-based; details: with and without S9, 3 and 28 h, 0.25 to 260 µg per mL
CYP2D6 = CYP2D6 (Homo sapiens, UniProt P10635); assay: CYP450 inhibition 2D6; assay type: in vitro ADME
[2] = Rat toxicokinetics (TK) study; assay type: in vivo, Sprague-Dawley male rats; details: for AUC / Cmax: po, 80 mg/kg
Description: A repeated oral dose toxicity and separate toxicokinetics (TK) study were performed in male rats by WuXi AppTec Company (Suzhou, China). […] All rat studies were performed using ∼8-week-old Sprague-Dawley male rats (Rattus novegicus)/Crl: CD[SD] VAF/Plus weighing between 243.22 and 276.57 g at the start of compound dosing. […] Serum was collected from vehicle-control animals at 1 h and 4 h after dosing on days 1 and 7.

CYP2C19 = CYP2C19 (Homo sapiens, UniProt P33261); assay: CYP450 inhibition 2C19; assay type: in vitro ADME
[3] = male, Holstein, bovine, plasma, 5 mg/kg
[4] = male, Sprague-Dawley, rat, serum, rat, 80 mg·kg-1 oral once daily, Day 1
[5] = male, Sprague-Dawley, rat, serum, rat, 80 mg·kg-1 oral once daily, Day 7

CYP2D6, sequence (P10635 whole entry): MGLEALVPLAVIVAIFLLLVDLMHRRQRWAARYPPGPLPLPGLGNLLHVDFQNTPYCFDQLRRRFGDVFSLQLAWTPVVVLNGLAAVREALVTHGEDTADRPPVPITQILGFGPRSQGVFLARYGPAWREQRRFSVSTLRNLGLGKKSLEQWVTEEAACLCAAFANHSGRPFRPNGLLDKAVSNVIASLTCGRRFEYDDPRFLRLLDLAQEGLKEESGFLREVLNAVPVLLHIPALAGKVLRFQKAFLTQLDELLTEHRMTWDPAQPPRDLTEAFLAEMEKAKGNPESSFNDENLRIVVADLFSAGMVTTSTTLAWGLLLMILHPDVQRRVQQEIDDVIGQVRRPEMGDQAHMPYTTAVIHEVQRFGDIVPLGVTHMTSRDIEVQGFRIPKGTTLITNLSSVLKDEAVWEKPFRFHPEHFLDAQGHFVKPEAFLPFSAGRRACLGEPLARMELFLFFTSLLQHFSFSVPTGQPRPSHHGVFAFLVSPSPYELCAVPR
CYP2C19, sequence (P33261 whole entry): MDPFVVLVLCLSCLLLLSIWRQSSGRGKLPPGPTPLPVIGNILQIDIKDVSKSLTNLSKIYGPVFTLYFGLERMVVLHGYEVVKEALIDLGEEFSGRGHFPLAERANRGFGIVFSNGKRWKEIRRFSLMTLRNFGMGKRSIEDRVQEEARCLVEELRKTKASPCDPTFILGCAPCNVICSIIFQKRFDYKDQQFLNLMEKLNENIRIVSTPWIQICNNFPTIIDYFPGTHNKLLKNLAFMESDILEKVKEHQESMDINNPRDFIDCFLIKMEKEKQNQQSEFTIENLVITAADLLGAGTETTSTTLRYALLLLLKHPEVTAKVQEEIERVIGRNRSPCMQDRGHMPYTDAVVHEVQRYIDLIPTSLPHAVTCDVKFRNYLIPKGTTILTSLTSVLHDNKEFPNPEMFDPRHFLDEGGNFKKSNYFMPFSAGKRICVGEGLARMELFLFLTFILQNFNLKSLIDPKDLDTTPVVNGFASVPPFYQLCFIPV

Structure (SMILES): CC1(C)OB(O)c2cc(NC(=O)c3ccc(-n4cccn4)cc3Cl)ccc21 [AN7973]
- EC50 (C. parvum; Bunch Grass Farm (BGF) C. parvum Iowa isolate, HCT-8 cells, 48 h exposure, read-out: EC50): 130 nM
- EC50 (C. parvum; Cryptosporidium parvum, HCT-8, in Vicia villosa, 48 h, Bunch Grass Farm (BGF) C. parvum Iowa isolate, HCT-8 cells, 48 h exposure, read-out: EC50): 130 to 430 nM
- EC50 (C. parvum; Cryptosporidium parvum, HCT-8, in Vicia villosa, Iowa (BGF, 10%FBS), HCT-8, single replicates, unit inferred, read-out: In vitro efficacy (Fig 2b, EC50)): 116 nM
- EC50 (C. parvum; Cryptosporidium parvum, HCT-8, in Vicia villosa, read-out: In vitro efficacy (Fig 2b, EC50)): 363 nM
- EC90 (C. parvum; Cryptosporidium parvum, in Vicia villosa, BGF Iowa isolate, HCT-8): 210 nM
- EC50 (C. parvum; Field isolate (2%FBS), HCT-8, single replicates, unit inferred, read-out: In vitro efficacy (Fig 2b, EC50)): 226 nM and 231 nM and 673 nM and 304 nM
- EC50 (C. parvum; Iowa (BGF, 2%FBS), HCT-8, single replicates, unit inferred, read-out: In vitro efficacy (Fig 2b, EC50)): 459 nM and 606 nM and 233 nM and 334 nM
- EC50 (C. parvum; Iowa (BGF, 10%FBS), HCT-8, single replicates, unit inferred, read-out: In vitro efficacy (Fig 2b, EC50)): 163 nM and 128 nM
- EC50 (C. parvum; Iowa (Sterling Lab, 2%FBS), HCT-8, single replicates, unit inferred, read-out: In vitro efficacy (Fig 2b, EC50)): 412 nM and 206 nM and 290 nM and 456 nM and 232 nM
- % inhibition, 0 - 48 h V. villosa lectin (asexual) (C. parvum; log [AN7973] 0.22): 97.86% and 96.89%
- % inhibition, 0 - 48 h V. villosa lectin (asexual) (C. parvum; log [AN7973] 0.52): 97.05% and 95.66%
- % inhibition, 0 - 48 h V. villosa lectin (asexual) (C. parvum; log [AN7973] 0.70): 95.89% and 94.55%
- % inhibition, 0 - 48 h V. villosa lectin (asexual) (C. parvum; log [AN7973] 1.00): 95.12% and 93.55%
- % inhibition, 0 - 48 h V. villosa lectin (asexual) (C. parvum; log [AN7973] -0.25): 95.71% and 93.12%
- % inhibition, 0 - 48 h V. villosa lectin (asexual) (C. parvum; log [AN7973] -0.73): 85.80% and 82.68%
- % inhibition, 0 - 48 h V. villosa lectin (asexual) (C. parvum; log [AN7973] -1.69): -8.97% and -7.81%
- % inhibition, 0 - 48 h V. villosa lectin (asexual) (C. parvum; log [AN7973] -2.16): -1.87% and -6.19%
- concentration giving maximum rate of parasite elimination ([1]; Cryptosporidium parvum, HCT-8, read-out: concentration at which maximum rate of parasite elimination was achieved (∼3 × EC90)): ~630 nM
- time-kill curve result ([1]; compound added ~24 h after infection of HCT-8): appeared to act rapidly and drove progressive elimination of C. parvum
- % Parasite / host nuclei ([1]; compound at 3 x EC90, 0 h exposure): 25.13% and 23.57% and 25.93% and 26.94%
- % Parasite / host nuclei ([1]; compound at 3 x EC90, 6 h exposure): 24.78% and 34.35% and 30.89%
- % Parasite / host nuclei ([1]; compound at 3 x EC90, 24 h exposure): 15.27% and 14.74% and 17.96% and 15.11%
- % Parasite / host nuclei ([1]; compound at 3 x EC90, 48 h exposure): 20.76% and 12.39% and 18.77% and 13.91%
- % Parasite / host nuclei ([1]; compound at 3 x EC90, 72 h exposure): 10.40% and 6.55% and 11.33% and 7.26%
- % Parasite / host nuclei ([1]; compound at 6 x EC90, 0 h exposure): 26.94% and 25.13% and 23.57% and 25.93%
- % Parasite / host nuclei ([1]; compound at 6 x EC90, 6 h exposure): 28.91% and 27.91% and 32.17% and 31.13%
- % Parasite / host nuclei ([1]; compound at 6 x EC90, 24 h exposure): 21.47% and 14.00% and 13.65% and 12.46%
- % Parasite / host nuclei ([1]; compound at 6 x EC90, 48 h exposure): 10.56% and 11.11% and 14.16% and 9.59%
- % Parasite / host nuclei ([1]; compound at 6 x EC90, 72 h exposure): 5.25% and 6.00% and 13.91% and 10.57%
- % Parasite / host nuclei ([1]; compound at 9 x EC90, 0 h exposure): 26.94% and 25.13% and 23.57% and 25.93%
- % Parasite / host nuclei ([1]; compound at 9 x EC90, 24 h exposure): 14.18% and 12.40% and 14.28% and 11.31%
- % Parasite / host nuclei ([1]; compound at 9 x EC90, 48 h exposure): 12.96% and 14.27% and 16.75% and 18.20%
- % Parasite / host nuclei ([1]; compound at 12 x EC90, 0 h exposure): 26.94% and 25.13% and 23.57% and 25.93%
- % Parasite / host nuclei ([1]; compound at 12 x EC90, 24 h exposure): 11.36% and 18.45% and 14.90% and 9.34%
- % Parasite / host nuclei ([1]; compound at 12 x EC90, 48 h exposure): 10.50% and 12.64% and 5.47% and 10.46%
- % Parasite / host nuclei ([1]; compound at 12 x EC90, 72 h exposure): 8.81% and 7.07% and 9.43% and 15.51%
- % Parasite / host nuclei ([1]; compound at EC50, 0 h exposure): 26.94% and 25.13% and 23.57% and 25.93%
- % Parasite / host nuclei ([1]; compound at EC50, 6 h exposure): 20.18%
- % Parasite / host nuclei ([1]; compound at EC50, 24 h exposure): 55.77% and 58.71% and 35.00% and 58.88%
- % Parasite / host nuclei ([1]; compound at EC50, 48 h exposure): 63.82% and 58.60% and 55.54% and 55.88%
- % Parasite / host nuclei ([1]; compound at EC50, 72 h exposure): 29.51% and 58.62% and 41.28% and 34.71%
- % Parasite / host nuclei ([1]; compound at EC90, 0 h exposure): 26.94% and 25.13% and 23.57% and 25.93%
- % Parasite / host nuclei ([1]; compound at EC90, 24 h exposure): 31.22% and 39.05% and 28.47% and 33.72%
- % Parasite / host nuclei ([1]; compound at EC90, 48 h exposure): 43.81% and 37.66% and 41.76% and 32.99%
- % Parasite / host nuclei ([1]; compound at EC90, 72 h exposure): 28.05% and 29.96% and 37.03% and 23.24%
- time required for 99.9% parasite reduction ([1]; in vitro): ~92 h
- in vitro parasite elimination half-life ([1]; one-phase exponential decay, 12 × EC90, referenced to DMSO control): ~9.2 h
- t1/2 (Single-dose oral calf PK): 31.1 h
- AUC(0-inf) (Single-dose oral calf PK; [3]): 190 µg·h/mL
- Cmax (Single-dose oral calf PK; [3]): 3570 ng/mL
- half-life (Single-dose oral calf PK; male, Holstein, bovine, plasma, po, 5 mg/kg): 31 h
- In vitro micronucleus (human lymphocytes): negative
- inhibition at 10 µM (CYP2D6): 0%
- compound accumulation ([2]; 80 mg per kg once daily, 7 days): No compound accumulation was observed
- AUC [2, 4]: 170 µg·h/mL
- Cmax [2, 4]: 11600 ng/mL
- AUC [2, 5]: 155 µg·h/mL
- Cmax [2, 5]: 10100 ng/mL
- Tmax ([2]; male, Sprague-Dawley, serum, rat, 80 mg·kg-1 oral once daily, Day 1): 8 h
- half-life ([2]; male, Sprague-Dawley, serum, rat, 80 mg·kg-1 oral once daily, Day 7): 22.7 h
- inhibition at 10 µM (CYP2C19): 27%
